Numbers after ± are expanded uncertainties.
Assay: xn = mol fraction of the nth substance listed
Conditions: Liquid, Vibrating tube method

CCCCCCCCCC [decane] + CCCCCC
Conditions	mass density [kg/m3]
352.99 K, 19000 kPa, x2 = 0.7524	655.43 ± 0.45
352.99 K, 20000 kPa, x2 = 0.0456	701.21 ± 0.41
352.99 K, 20000 kPa, x2 = 0.7524	656.5 ± 0.46
352.99 K, 21000 kPa, x2 = 0.0456	702.11 ± 0.42
352.99 K, 21000 kPa, x2 = 0.7524	657.54 ± 0.47
352.99 K, 22000 kPa, x2 = 0.0456	702.98 ± 0.42
352.99 K, 22000 kPa, x2 = 0.7524	658.56 ± 0.48
352.99 K, 23000 kPa, x2 = 0.0456	703.83 ± 0.43
352.99 K, 23000 kPa, x2 = 0.7524	659.55 ± 0.49
352.99 K, 24000 kPa, x2 = 0.0456	704.67 ± 0.44
352.99 K, 24000 kPa, x2 = 0.7524	660.56 ± 0.5
352.99 K, 25000 kPa, x2 = 0.0456	705.49 ± 0.45
352.99 K, 25000 kPa, x2 = 0.7524	661.49 ± 0.51
353 K, 1000 kPa, x2 = 0.2185	673.09 ± 0.26
353 K, 2000 kPa, x2 = 0.2185	674.25 ± 0.27
353 K, 3000 kPa, x2 = 0.2185	675.39 ± 0.28
353 K, 4000 kPa, x2 = 0.2185	676.51 ± 0.28
353 K, 5000 kPa, x2 = 0.2185	677.65 ± 0.29
353 K, 6000 kPa, x2 = 0.2185	678.75 ± 0.3
353 K, 7000 kPa, x2 = 0.2185	679.82 ± 0.31
353 K, 8000 kPa, x2 = 0.2185	680.92 ± 0.32
353 K, 9000 kPa, x2 = 0.2185	681.98 ± 0.32
353 K, 10000 kPa, x2 = 0.2185	683.03 ± 0.33
353 K, 11000 kPa, x2 = 0.2185	684.07 ± 0.34
353 K, 12000 kPa, x2 = 0.2185	685.08 ± 0.35
353 K, 13000 kPa, x2 = 0.2185	686.09 ± 0.36
353 K, 14000 kPa, x2 = 0.2185	687.09 ± 0.37
353 K, 15000 kPa, x2 = 0.2185	688.08 ± 0.37
353 K, 16000 kPa, x2 = 0.2185	689.03 ± 0.38
353 K, 17000 kPa, x2 = 0.2185	689.97 ± 0.39
353 K, 18000 kPa, x2 = 0.2185	690.9 ± 0.4
353 K, 19000 kPa, x2 = 0.2185	691.79 ± 0.41
353 K, 20000 kPa, x2 = 0.2185	692.7 ± 0.42
353 K, 21000 kPa, x2 = 0.2185	693.59 ± 0.43
353 K, 22000 kPa, x2 = 0.2185	694.47 ± 0.43
353 K, 23000 kPa, x2 = 0.2185	695.35 ± 0.44
353 K, 24000 kPa, x2 = 0.2185	696.22 ± 0.45
353 K, 25000 kPa, x2 = 0.2185	697.07 ± 0.46
353.01 K, 1000 kPa, x2 = 0.4968	654.56 ± 0.27
353.01 K, 2000 kPa, x2 = 0.4968	655.89 ± 0.28
353.01 K, 3000 kPa, x2 = 0.4968	657.2 ± 0.28
353.01 K, 4000 kPa, x2 = 0.4968	658.52 ± 0.29
353.01 K, 5000 kPa, x2 = 0.4968	659.83 ± 0.3
353.01 K, 6000 kPa, x2 = 0.4968	661.12 ± 0.31
353.01 K, 7000 kPa, x2 = 0.4968	662.3 ± 0.32
353.01 K, 8000 kPa, x2 = 0.4968	663.52 ± 0.33
353.01 K, 9000 kPa, x2 = 0.4968	664.66 ± 0.33
353.01 K, 10000 kPa, x2 = 0.4968	665.8 ± 0.34
353.01 K, 11000 kPa, x2 = 0.4968	666.94 ± 0.35
353.01 K, 12000 kPa, x2 = 0.4968	668.05 ± 0.36
353.01 K, 13000 kPa, x2 = 0.4968	669.13 ± 0.37
353.01 K, 14000 kPa, x2 = 0.4968	670.21 ± 0.38
353.01 K, 15000 kPa, x2 = 0.4968	671.26 ± 0.39
353.01 K, 16000 kPa, x2 = 0.4968	672.3 ± 0.4
353.01 K, 17000 kPa, x2 = 0.4968	673.3 ± 0.41
353.01 K, 18000 kPa, x2 = 0.4968	674.32 ± 0.42
353.01 K, 19000 kPa, x2 = 0.4968	675.27 ± 0.43
353.01 K, 20000 kPa, x2 = 0.4968	676.25 ± 0.43
353.01 K, 21000 kPa, x2 = 0.4968	677.22 ± 0.44
353.01 K, 22000 kPa, x2 = 0.4968	678.15 ± 0.45
353.01 K, 23000 kPa, x2 = 0.4968	679.08 ± 0.46
353.01 K, 24000 kPa, x2 = 0.4968	680 ± 0.47
353.01 K, 25000 kPa, x2 = 0.4968	680.91 ± 0.48
362.59 K, 1000 kPa, x2 = 0.8991	607.57 ± 0.28
362.59 K, 2000 kPa, x2 = 0.8991	609.29 ± 0.29
362.59 K, 3000 kPa, x2 = 0.8991	610.97 ± 0.3
362.59 K, 4000 kPa, x2 = 0.8991	612.62 ± 0.31
362.59 K, 5000 kPa, x2 = 0.8991	614.24 ± 0.32
362.59 K, 6000 kPa, x2 = 0.8991	615.83 ± 0.33
362.59 K, 7000 kPa, x2 = 0.8991	617.37 ± 0.34
362.59 K, 8000 kPa, x2 = 0.8991	618.92 ± 0.35
362.59 K, 9000 kPa, x2 = 0.8991	620.4 ± 0.4
362.59 K, 10000 kPa, x2 = 0.8991	621.89 ± 0.37
362.59 K, 11000 kPa, x2 = 0.8991	623.32 ± 0.38
362.59 K, 12000 kPa, x2 = 0.8991	624.72 ± 0.39
362.59 K, 13000 kPa, x2 = 0.8991	626.12 ± 0.4
362.59 K, 14000 kPa, x2 = 0.8991	627.49 ± 0.41
362.59 K, 15000 kPa, x2 = 0.8991	628.8 ± 0.4
362.59 K, 16000 kPa, x2 = 0.8991	630.11 ± 0.44
362.59 K, 17000 kPa, x2 = 0.8991	631.37 ± 0.45
362.59 K, 18000 kPa, x2 = 0.8991	632.62 ± 0.46
362.59 K, 19000 kPa, x2 = 0.8991	633.83 ± 0.47
362.59 K, 20000 kPa, x2 = 0.8991	635.04 ± 0.48
362.59 K, 21000 kPa, x2 = 0.8991	636.21 ± 0.49
362.59 K, 22000 kPa, x2 = 0.8991	637.35 ± 0.5
362.59 K, 23000 kPa, x2 = 0.8991	638.45 ± 0.51
362.59 K, 24000 kPa, x2 = 0.8991	639.52 ± 0.53
362.59 K, 25000 kPa, x2 = 0.8991	640.65 ± 0.54
362.91 K, 1000 kPa, x2 = 0.0456	674.5 ± 0.26
362.91 K, 2000 kPa, x2 = 0.0456	675.7 ± 0.27
362.91 K, 3000 kPa, x2 = 0.0456	676.88 ± 0.27
362.91 K, 4000 kPa, x2 = 0.0456	678.04 ± 0.28
362.91 K, 5000 kPa, x2 = 0.0456	679.18 ± 0.29
362.91 K, 6000 kPa, x2 = 0.0456	680.32 ± 0.3
